Test [1] deals with 60 NCI tumor cell lines. In words: NCI-60 single-dose growth inhibition screen (SRB). It is filed as cell-based, human. Particulars: for inhibition at 10 µM: Homo sapiens, mean over 60 NCI tumor cell lines; for anti-proliferative activity (in words): 10 µM, NCI-60 panel and MCF-7. The method, then:
The anti-proliferative effects of the novel analogs were tested in vitro by the National Cancer Institute (NCI) on a panel of 60 human tumor cell lines at 10 µM. Compounds that elicited mean growth inhibition ≥50% were selected by the NCI for 5-dose testing.
Compounds were submitted to the Developmental Therapeutics Program (DTP) of the National Cancer Institute (NCI). The program uses a panel of 60 human tumor cell lines representing nine tissue types, including leukemia, non-small cell lung cancer (NSCLC), melanoma, colon cancer, ovarian cancer, CNS cancer, renal cancer, prostate cancer, and breast cancer, to screen for potential new anti-cancer agents. […] Primary screening of synthesized compounds was performed by testing a single high dose of 10 µM in the full NCI-60 panel. The percent growth of treated cells relative to the no-drug control and relative to the time zero number of cells was measured, and a mean graph was provided. The percentage inhibition was then calculated by subtracting the values obtained from 100.
All compounds were subjected to the NCI in vitro disease-oriented human cells screening panel assay. The human tumor cell lines of the cancer-screening panel are grown in RPMI 1640 medium containing 5% fetal bovine serum and 2 mM L-glutamine. For a typical screening experiment, cells are inoculated into 96-well microtiter plates in 100 μL at plating densities ranging from 5000 to 40,000 cells/well depending on the doubling time of individual cell lines. After cell inoculation, the microtiter plates are incubated at 37 °C, 5% CO2, 95% air, and 100% relative humidity for 24 h prior to the addition of experimental drugs. After 24 h, two plates of each cell line are fixed in situ with TCA to represent a measurement of the cell population for each cell line at the time of drug addition. Experimental drugs are solubilized in dimethyl sulfoxide at 400-fold the desired final maximum test concentration and stored frozen prior to use. At the time of drug addition, an aliquot of frozen concentrate is thawed and diluted to twice the desired final maximum test concentration with complete medium containing 50 μg/mL gentamicin. Additional four, 10-fold, or ½ log serial dilutions are made to provide a total of five drug concentrations plus control. Aliquots of 100 μL of these different drug dilutions are added to the appropriate microtiter wells already containing 100 μL of medium, resulting in the required final drug concentrations. Following drug addition, the plates are incubated for an additional 48 h at 37 °C, 5% CO2, 95% air, and 100% relative humidity. For adherent cells, the assay is terminated by the addition of cold TCA. Cells are fixed in situ by the gentle addition of 50 μL of cold 50% (w/v) TCA (final concentration, 10% TCA) and incubated for 60 min at 4 °C. The supernatant is discarded, and the plates are washed five times with tap water and air-dried. Sulforhodamine B (SRB) solution (100 μL) at 0.4% (w/v) in 1% acetic acid is added to each well, and plates are incubated for 10 min at room temperature. After staining, unbound dye is removed by washing five times with 1% acetic acid, and the plates are air-dried. Bound stain is subsequently solubilized with a 10 mM trizma base, and the absorbance is read on an automated plate reader at a wavelength of 515 nm. For suspension cells, the methodology is the same except that the assay is terminated by fixing settled cells at the bottom of the wells by gently adding 50 μL of 80% TCA (final concentration, 16% TCA). Compounds are screened at a dose of 10 µM, hits showing mean growth inhibition over 60 cell lines >50% are escalated for 5-dose screening assay.

The target of test [2] is T1, human ERα (Homo sapiens, UniProt P03372).
T1 construct: host or cells: Saccharomyces cerevisiae
T1 sequence (P03372 1-595): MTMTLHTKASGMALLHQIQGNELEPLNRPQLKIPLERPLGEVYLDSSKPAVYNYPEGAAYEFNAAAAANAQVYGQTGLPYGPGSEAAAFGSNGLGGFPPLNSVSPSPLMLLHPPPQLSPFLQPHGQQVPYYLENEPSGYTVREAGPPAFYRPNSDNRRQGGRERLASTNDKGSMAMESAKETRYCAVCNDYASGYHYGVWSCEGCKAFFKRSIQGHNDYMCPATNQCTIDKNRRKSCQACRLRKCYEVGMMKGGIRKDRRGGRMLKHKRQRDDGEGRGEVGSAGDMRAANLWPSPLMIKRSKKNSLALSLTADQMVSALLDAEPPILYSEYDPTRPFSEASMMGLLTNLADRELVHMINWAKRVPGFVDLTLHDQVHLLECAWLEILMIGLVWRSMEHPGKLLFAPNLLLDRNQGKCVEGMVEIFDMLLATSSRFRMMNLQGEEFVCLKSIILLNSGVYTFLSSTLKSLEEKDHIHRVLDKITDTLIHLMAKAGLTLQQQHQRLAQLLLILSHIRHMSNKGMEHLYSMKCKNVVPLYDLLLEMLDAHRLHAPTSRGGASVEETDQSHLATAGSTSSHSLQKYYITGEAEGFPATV
Put plainly: Yeast estrogen screen (YES) assay, antagonistic activity (β-galactosidase reporter). It is filed as cell-based, yeast (Saccharomyces cerevisiae). The settings on record: compounds at 1 µM in presence of 0.5 nM/1 nM E2 (E2 set as 1); triplicates. The method, then: All synthesized compounds were tested for their relative activity in β-galactosidase in a yeast estrogen screen (YES) assay. Compounds were tested for their relative estrogenic/anti-estrogenic activities in comparison to positive and negative controls, respectively. YES assay is a gene reporter assay where the DNA sequence of human ERα is integrated into the yeast genome completed with an expression plasmid carrying estrogen response elements (ERE) in the promoter controlling the expression of the reporter gene lacZ (encoding the enzyme β-galactosidase). In the presence of estrogenic compounds, β-galactosidase is synthesized and secreted into the medium, where it converts the chromogenic substrate chlorophenol red-β-D-galactopyranoside (CRPG) from a yellow to a red product, whose absorbance is measured. […] Therefore, we decided to test the novel compounds in an organ-specific in vitro model using the human Ishikawa endometrial adenocarcinoma cell line.
The yeast estrogen receptor assay was supplied by Dr. J.P. Sumpter (Brunel University, Uxbridge, UK) and was used to determine the relative transactivation activity of the human ERα as formerly described. Briefly, Saccharomyces cerevisiae stably transfected with a human ERα and an estrogen-responsive element fused to the reporter gene lacZ encoding for β-galactosidase were treated with the test substances for about 48 h. The β-galactosidase enzymatic activity was measured in a colorimetric assay using a microplate photometer by hydrolysis of the substrate chlorophenol red β-D-galactopyranoside (Roche Diagnostics, Mannheim, Germany), which leads to the formation of chlorophenol red. This can be measured as an increased absorption at 540 nm. All compounds were diluted in DMSO. […] All compounds were tested in technical quadruplicates and biological triplicates. Statistical analysis was performed by analysis of variance (ANOVA) and Tukey’s post-hoc test with the significance level of p < 0.05.

For orientation: inhibition means the change of the read-out against control, counted positive when it falls. Read a low inhibition as a weak effect.

Compound `COc1ccc(C(C)=C(c2ccc(Cl)cc2)c2ccc(OCCN3CCCCCC3)cc2)cc1F` [Compound 19, E/Z-1-(2-{4-[1-(4-Chlorophenyl)-2-(3-fluoro-4-methoxyphenyl)-propenyl]-phenoxy}-ethyl)-azepane] came in with an inhibition at 10 µM in test [1] of 60.8%. On to `COc1ccc(C(C)=C(c2ccc(Cl)cc2)c2ccc(OCCN3CCCC3)cc2)cc1` [Compound 11, E/Z-1-(2-{4-[1-(4-Chloro-phenyl)-2-(4-methoxy-phenyl)-propenyl]-phenoxy}-ethyl)-pyrrolidine], for which the “Anti-Estrogenic Activity (relative β-galactosidase activity)” value in test [2] is given as 1.55 ± 0.12. In test [1], this compound came in with an inhibition at 10 µM of 67.8%. Regarding `COc1ccc(C(C)=C(c2ccc(Cl)cc2)c2ccc(OCCN3CCCC3)cc2)cc1F` [Compound 16, E/Z-1-(2-{4-[1-(4-Chlorophenyl)-2-(3-fluoro-4-methoxyphenyl)-propenyl]-phenoxy}-ethyl)-pyrrolidine], in test [1], at 10 µM the inhibition was 77.2%. Still for that read-out and setting: next, `COc1ccc(C(C)=C(c2ccc(Cl)cc2)c2ccc(OCCN(C)C)cc2)cc1F` [Compound 20, E/Z-(2-{4-[1-(4-Chlorophenyl)-2-(3-fluoro-4-methoxyphenyl)-propenyl]-phenoxy}-ethyl)-dimethyl-amine]: 47%. As to `COc1cc(C(C)=C(c2ccc(Cl)cc2)c2ccc(OCCCN(C)C)cc2)ccc1F` [Compound 22, E/Z-(3-{4-[1-(4-Chlorophenyl)-2-(4-fluoro-3-methoxyphenyl)-propenyl]-phenoxy}-propyl)-dimethyl-amine], the “Anti-Estrogenic Activity (relative β-galactosidase activity)” value in test [2] was determined as 0.97 ± 0.03. The inhibition at 10 µM in test [1] is 18.6%. In the case of `CC(=C(c1ccc(Cl)cc1)c1ccc(OCCN2CCCCC2)cc1)c1ccccc1` [Compound 7, E/Z-1-(2-{4-[1-(4-Chloro-phenyl)-2-phenyl-propenyl]-phenoxy}-ethyl)-piperidine], the “Anti-Estrogenic Activity (relative β-galactosidase activity)” value in test [2] came to 1.35 ± 0.16. Moreover, the inhibition at 10 µM in test [1] amounted to 29%. On to `COc1ccc(C(C)=C(c2ccc(Cl)cc2)c2ccc(OCCN3CCOCC3)cc2)cc1F` [Compound 18, E/Z-4-(2-{4-[1-(4-Chlorophenyl)-2-(3-fluoro-4-methoxyphenyl)-propenyl]-phenoxy}-ethyl)-morpholine], for which, in test [1], the “anti-proliferative activity (in words)” value was “lacked anti-proliferative activity” and the inhibition at 10 µM was found to be 4.23%. Regarding `COc1ccc(C(C)=C(c2ccc(O)cc2)c2ccc(Cl)cc2)cc1F` [Compound 3, E/Z-4-[1-(4-Chlorophenyl)-2-(3-fluoro-4-methoxyphenyl)propenyl]-phenol], in test [1], the “anti-proliferative activity (in words)” value is “lacked anti-proliferative activity” and the inhibition at 10 µM was determined as 2.34%. `COc1cc(C(C)=C(c2ccc(Cl)cc2)c2ccc(OCCN3CCCCC3)cc2)ccc1F` [Compound 24, E/Z-1-(2-{4-[1-(4-Chlorophenyl)-2-(4-fluoro-3-methoxyphenyl)-propenyl]-phenoxy}-ethyl)-piperidine]: in test [2], the “Anti-Estrogenic Activity (relative β-galactosidase activity)” value was determined as 1.19 ± 0.10. For the same compound, testing at 10 µM in test [1] gave an inhibition of 29.2%.

As to `CC(=C(c1ccc(Cl)cc1)c1ccc(OCCCN(C)C)cc1)c1ccccc1` [Compound 5, E/Z-(3-{4-[1-(4-Chloro-phenyl)-2-phenyl-propenyl]-phenoxy}-propyl)-dimethyl-amine], in test [2], the “Anti-Estrogenic Activity (relative β-galactosidase activity)” value was 1.34 ± 0.15. For the same compound, the inhibition at 10 µM in test [1] was found to be 15.4%. Turning to `CC(=C(c1ccc(Cl)cc1)c1ccc(OCCN2CCCC2)cc1)c1ccccc1` [Compound 6, E/Z-1-(2-{4-[1-(4-Chloro-phenyl)-2-phenyl-propenyl]-phenoxy}-ethyl)-pyrrolidine], in test [2], the “Anti-Estrogenic Activity (relative β-galactosidase activity)” value was 1.20 ± 0.19. For the same compound, 10 µM produced 37.8% inhibition in test [1]. For the compound `COc1cc(C(C)=C(c2ccc(Cl)cc2)c2ccc(OCCN(C)C)cc2)ccc1F` [Compound 27, E/Z-(2-{4-[1-(4-Chlorophenyl)-2-(4-fluoro-3-methoxyphenyl)-propenyl]-phenoxy}-ethyl)-dimethyl-amine], the “Anti-Estrogenic Activity (relative β-galactosidase activity)” value in test [2] is given as 0.86 ± 0.04. In addition, in test [1], the inhibition at 10 µM came to 47.2%. `COc1ccc(C(C)=C(c2ccc(Cl)cc2)c2ccc(OCCN3CCCCC3)cc2)cc1F` [Compound 17, E/Z-1-(2-{4-[1-(4-Chlorophenyl)-2-(3-fluoro-4-methoxyphenyl)-propenyl]-phenoxy}-ethyl)-piperidine] returned an inhibition at 10 µM in test [1] of 69.1%. `CCN(CC)CCOc1ccc(C(=C(C)c2ccc(OC)c(F)c2)c2ccc(Cl)cc2)cc1` [Compound 21, E/Z-(2-{4-[1-(4-Chlorophenyl)-2-(3-fluoro-4-methoxyphenyl)-propenyl]-phenoxy}-ethyl)-diethyl-amine]: 10 µM produced 31.2% inhibition in test [1]. Turning to `COc1ccc(C(C)=C(c2ccc(Cl)cc2)c2ccc(OCCN3CCOCC3)cc2)cc1` [Compound 13, E/Z-4-(2-{4-[1-(4-Chloro-phenyl)-2-(4-methoxy-phenyl)-propenyl]-phenoxy}-ethyl)-morpholine], in test [1], the “anti-proliferative activity (in words)” value was “lacked anti-proliferative activity” and 10 µM produced 7.86% inhibition. Take `COc1ccc(C(C)=C(c2ccc(Cl)cc2)c2ccc(OCCCN(C)C)cc2)cc1F` [Compound 15, E/Z-(3-{4-[1-(4-Chlorophenyl)-2-(3-fluoro-4-methoxyphenyl)-propenyl]-phenoxy}-propyl)-dimethyl-amine]: the inhibition at 10 µM in test [1] is 47.9%. On to `COc1cc(C(C)=C(c2ccc(O)cc2)c2ccc(Cl)cc2)ccc1F` [Compound 4, E/Z-4-[1-(4-Chlorophenyl)-2-(4-fluoro-3-methoxyphenyl)propenyl]-phenol], for which, in test [1], the “anti-proliferative activity (in words)” value is given as “lacked anti-proliferative activity” and the inhibition at 10 µM is 15.4%.

For the origin of these results see article PMC8621172, “Manipulating Estrogenic/Anti-Estrogenic Activity of Triphenylethylenes towards Development of Novel Anti-Neoplastic SERMs” (International Journal of Molecular Sciences, 2021).
